IC50 data for 13 compounds are collected here from patent publication US9809574B2, “Isoindoline or isoquinoline compounds, a process for their preparation and pharmaceutical compositions containing them” (LES LABORATOIRES SERVIER, priority 2013, dated 2017).

Molecules are shown by their SMILES. Structures can show the parent of a compound that is named as a salt.

The test system of test [1] is RS4; 11 leukaemia cell line. Nature of the test: In vitro cytotoxicity, Microculture Tetrazolium Assay (MTT). Type of test: cell-based. As to conditions: Homo sapiens, 11 cells exposed for 48 hours. How it is done:
The cytotoxicity studies were carried out on the RS4; 11 leukaemia cell line and on H146 small Cell Lung Carcinoma cell line. The cells are distributed onto microplates and exposed to the test compounds for 48 hours. The cell viability is then quantified by a colorimetric assay, the Microculture Tetrazolium Assay (Cancer Res., 1987, 47, 939-942).

The next test has as its target Bcl-2 protein (histag-Bcl-2, UniProtKB P10415) (Homo sapiens (Human), UniProt P10415). Kind of test: Inhibition of Bcl-2 by the fluorescence polarisation technique. Format: binding. As to conditions: fluorescence polarisation test; incubation for 2 hours; read-out: IC50 (nM) Bcl-2 FP. The source says: For partial inhibitors, the percentage fluorescence polarisation inhibition for a given concentration of the test compound is indicated.
(Fluorescence polarisation rises when a labelled molecule tumbles more slowly, as on binding a larger partner.)

What is called IC50 is the midpoint of a concentration-inhibition curve.

Sequence of Bcl-2 protein (P10415 whole entry): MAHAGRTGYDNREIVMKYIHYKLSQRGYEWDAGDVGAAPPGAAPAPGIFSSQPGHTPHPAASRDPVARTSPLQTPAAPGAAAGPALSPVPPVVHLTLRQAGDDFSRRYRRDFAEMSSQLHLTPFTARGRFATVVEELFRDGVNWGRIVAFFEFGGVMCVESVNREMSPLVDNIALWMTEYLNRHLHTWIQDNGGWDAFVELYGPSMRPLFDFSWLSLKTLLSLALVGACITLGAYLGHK

Consider `CN(C(=O)c1cc(-c2cc3c(cc2C(=O)N2Cc4ccccc4C[C@H]2CN2CCOCC2)CN(C(=O)NCc2ccccc2)CC3)n2c1CCCC2)c1ccc(O)cc1` [Example 78, N-Benzyl-6-{1-[(4-hydroxyphenyl)(methyl)carbamoyl]-5,6,7,8-tetrahydroindolizin-3-yl}-7-[(3S)-3-(morpholin-4-ylmethyl)-1,2,3,4-tetrahydroisoquinoline-2-carbonyl]-1,2,3,4-tetrahydroisoquinoline-2-carboxamide], for which the results for the IC50 (in test [1]; at Bcl-2 protein) were 142 nM and 4.4 nM, respectively.
The like results for `CNC(=O)N1CCc2cc(-c3cc(C(=O)N(C)c4ccc(O)cc4)c4n3CCCC4)c(C(=O)N3Cc4ccccc4C[C@H]3C)cc2C1` [Example 79, 6-{1-[(4-Hydroxyphenyl)(methyl)carbamoyl]-5,6,7,8-tetrahydroindolizin-3-yl}-N-methyl-7-[(3R)-3-methyl-1,2,3,4-tetrahydroisoquinoline-2-carbonyl]-1,2,3,4-tetrahydroisoquinoline-2-carboxamide] were, in that order, over 150 nM and 5.6 nM.
For `Cc1c(C(=O)N(C)c2ccc(O)cc2)cc(-c2cc3c(cc2C(=O)N2Cc4ccccc4C[C@H]2C)CN(C(=O)Cc2ccccc2)C3)n1C` [Example 80, N-(4-Hydroxyphenyl)-N,1,2-trimethyl-5-{6-[(3R)-3-methyl-1,2,3,4-tetrahydroisoquinoline-2-carbonyl]-2-(2-phenylacetyl)-2,3-dihydro-1H-isoindol-5-yl}-1H-pyrrole-3-carboxamide], the IC50 in test [1] was found to be 71 nM; on Bcl-2 protein, 5.5 nM.
The matching figures for `C[C@@H]1Cc2ccccc2CN1C(=O)c1cc2c(cc1-c1cc(C(=O)N(C)c3ccc(O)cc3)c3n1CCCC3)CN(C(=O)N(C)C(C)(C)C)C2` [Example 81, N-tert-Butyl-5-{1-[(4-hydroxyphenyl)(methyl)carbamoyl]-5,6,7,8-tetrahydroindolizin-3-yl}-N-methyl-6-[(3R)-3-methyl-1,2,3,4-tetrahydroisoquinoline-2-carbonyl]-2,3-dihydro-1H-isoindole-2-carboxamide]: over 150 nM and 21 nM.
The matching figures for `C[C@@H]1Cc2ccccc2CN1C(=O)c1cc2c(cc1-c1cc(C(=O)N(C)c3ccc(O)cc3)c3n1CCCC3)CN(C(=O)N(C)c1ccccc1)C2` [Example 82, 5-{1-[(4-Hydroxyphenyl)(methyl)carbamoyl]-5,6,7,8-tetrahydroindolizin-3-yl}-N-methyl-6-[(3R)-3-methyl-1,2,3,4-tetrahydroisoquinoline-2-carbonyl]-N-phenyl-2,3-dihydro-1H-isoindole-2-carboxamide]: over 150 nM and 17 nM.
The like results for `C[C@@H]1Cc2ccccc2CN1C(=O)c1cc2c(cc1-c1cc(C(=O)N(C)c3ccc(O)cc3)c3n1CCCC3)CN(C(=O)N1CC(c3ccccc3)C1)C2` [Example 83, N-(4-Hydroxyphenyl)-N-methyl-3-{6-[(3R)-3-methyl-1,2,3,4-tetrahydroisoquinoline-2-carbonyl]-2-(3-phenylazetidine-1-carbonyl)-2,3-dihydro-1H-isoindol-5-yl}-5,6,7,8-tetrahydroindolizine-1-carboxamide] were, in that order, 122 nM and 15 nM.
For the compound `C[C@@H]1Cc2ccccc2CN1C(=O)c1cc2c(cc1-c1cc(C(=O)N(C)c3ccc(O)cc3)c3n1CCCC3)CCN(C(=O)N1CC(c3ccccc3)C1)C2` [Example 84, N-(4-Hydroxyphenyl)-N-methyl-3-{7-[(3R)-3-methyl-1,2,3,4-tetrahydroisoquinoline-2-carbonyl]-2-(3-phenylazetidine-1-carbonyl)-1,2,3,4-tetrahydroisoquinolin-6-yl}-5,6,7,8-tetrahydroindolizine-1-carboxamide], the results for the IC50 (in test [1]; on Bcl-2 protein) were 33 nM and 4.9 nM, respectively.
The matching figures for `C[C@@H]1Cc2ccccc2CN1C(=O)c1cc2c(cc1-c1cc(C(=O)N(C)c3ccc(O)cc3)c3n1CCCC3)CN(C(=O)N(C)Cc1ccccc1)C2` [Example 85, N-Benzyl-5-{1-[(4-hydroxyphenyl)(methyl)carbamoyl]-5,6,7,8-tetrahydroindolizin-3-yl}-N-methyl-6-[(3R)-3-methyl-1,2,3,4-tetrahydroisoquinoline-2-carbonyl]-2,3-dihydro-1H-isoindole-2-carboxamide]: 58 nM and 6.1 nM.
The like results for `C[C@@H]1Cc2ccccc2CN1C(=O)c1cc2c(cc1-c1cc(C(=O)N(C)c3ccc(O)cc3)c3n1CCCC3)CN(C(=O)COc1ccccc1Cl)C2` [Example 86, 3-{2-[2-(2-Chlorophenoxy)acetyl]-6-[(3R)-3-methyl-1,2,3,4-tetrahydroisoquinoline-2-carbonyl]-2,3-dihydro-1H-isoindol-5-yl}-N-(4-hydroxyphenyl)-N-methyl-5,6,7,8-tetrahydroindolizine-1-carboxamide] were, in that order, 60 nM and 5.5 nM.
The like results for `C[C@@H]1Cc2ccccc2CN1C(=O)c1cc2c(cc1-c1cc(C(=O)N(C)c3ccc(O)cc3)c3n1CCCC3)CN(C(=O)CNc1ccccc1)C2` [Example 87, N-(4-Hydroxyphenyl)-N-methyl-3-{6-[(3R)-3-methyl-1,2,3,4-tetrahydroisoquinoline-2-carbonyl]-2-[2-(phenylamino)acetyl]-2,3-dihydro-1H-isoindol-5-yl}-5,6,7,8-tetrahydroindolizine-1-carboxamide] were, in that order, 43 nM and 5.1 nM.
Regarding `Cc1c(C(=O)N(C)c2ccc(O)cc2)cc(-c2cc3c(cc2C(=O)N2Cc4ccccc4C[C@H]2CN2CCOCC2)CN(C(=O)Oc2ccccc2)CC3)n1C` [Example 88, Phenyl 6-{4-[(4-hydroxyphenyl)(methyl)carbamoyl]-1,5-dimethyl-1H-pyrrol-2-yl}-7-[(3S)-3-(morpholin-4-ylmethyl)-1,2,3,4-tetrahydroisoquinoline-2-carbonyl]-1,2,3,4-tetrahydroisoquinoline-2-carboxylate hydrochloride], the concentration for half-maximal inhibition (IC50) in test [1] came out at 3.9 nM; at Bcl-2 protein, 3.5 nM.
The matching figures for `Cc1c(C(=O)N(C)c2ccc(O)cc2)cc(-c2cc3c(cc2C(=O)N2Cc4ccccc4C[C@H]2CN2CCOCC2)CN(C(=O)Cc2ccccc2)CC3)n1C` [Example 89, N-(4-Hydroxyphenyl)-N,1,2-trimethyl-5-{7-[(3S)-3-(morpholin-4-ylmethyl)-1,2,3,4-tetrahydroisoquinoline-2-carbonyl]-2-(2-phenylacetyl)-1,2,3,4-tetrahydroisoquinolin-6-yl}-1H-pyrrole-3-carboxamide]: 24 nM and 3.5 nM.
`C[C@H](C(=O)N1CCc2cc(-c3cc(C(=O)N(C)c4ccc(O)cc4)c4n3CCCC4)c(C(=O)N3Cc4ccccc4C[C@H]3C)cc2C1)c1ccccc1` [Example 90, N-(4-Hydroxyphenyl)-N-methyl-3-{7-[(3R)-3-methyl-1,2,3,4-tetrahydroisoquinoline-2-carbonyl]-2-[(2S)-2-phenylpropanoyl]-1,2,3,4-tetrahydroisoquinolin-6-yl}-5,6,7,8-tetrahydroindolizine-1-carboxamide]: the half-inhibitory concentration (IC50) in test [1] turned out to be 39 nM; on Bcl-2 protein, 6.2 nM.
